Test results reported in patent publication US11046698B2, “TYK2 inhibitors and uses thereof” (Nimbus Lakshmi, Inc., priority 2017, dated 2021).

Legend:
[1] = target: Tyk2 kinase domain (JH1) (Homo sapiens (Human), UniProt P29597); assay: Tyk2 Radioactive Kinase Assay; assay type: biochemical; settings: ATP 10 μM
Protocol: (§1) The Tyk2 and JAK2 radioactive kinase assay measures the percent inhibiton at the Tyk2 kinase domain (JH1) and the percent inhibiton at the JAK2 kinase domain (JH1). Results of the assay are expressed as percent inhibition at 10 μM.

[2] = target: JAK2 kinase domain (JH1) (Homo sapiens (Human), UniProt O60674); assay: JAK2 Radioactive Kinase Assay; assay type: biochemical; settings: ATP 10 μM
Chain of JAK2 kinase domain (JH1) (O60674 849-1124): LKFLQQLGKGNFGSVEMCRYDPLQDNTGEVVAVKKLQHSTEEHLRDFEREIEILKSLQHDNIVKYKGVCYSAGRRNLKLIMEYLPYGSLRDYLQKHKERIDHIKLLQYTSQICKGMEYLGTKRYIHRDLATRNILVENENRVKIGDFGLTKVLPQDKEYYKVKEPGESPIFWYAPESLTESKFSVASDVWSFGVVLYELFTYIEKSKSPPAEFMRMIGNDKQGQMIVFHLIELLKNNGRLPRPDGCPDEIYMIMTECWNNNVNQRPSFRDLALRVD
Protocol: as §1

[3] = tested on: IL-12 induced STAT4 phophorylation mediated by Tyk2/JAK2 (heterodimeric complex); assay: IL-12 Induced pSTAT4 in Human PBMC; assay type: cell-based; settings: 1.7 ng/mL IL-12
Text: The IL-12 Induced pSTAT4 assay evaluates the inhibition of IL-12 induced STAT4 phophorylation mediated by Tyk2/JAK2 (heterodimeric complex).

[4] = tested on: GM-CSF induced STAT5 phosphorylation mediated by the JAK2/JAK2 homodimeric complex; assay: GM-CSF Induced pSTAT5 in Human PBMC; settings: 20 min, read-out: PBMC_GMCSF_pSTAT5 IC50 (μM), human PBMC, GM-CSF 5 ng/mL for 20 minutes, pSTAT5 by MSD
[5] = target: human TYK2 (JH2domain-pseudokinase) (Homo sapiens (Human), UniProt P29597); assay: TYK2 JH2 Domain Binding Assay (KINOMEscan, DiscoveRx)
Chain of human TYK2 (JH2domain-pseudokinase) (P29597 556-888): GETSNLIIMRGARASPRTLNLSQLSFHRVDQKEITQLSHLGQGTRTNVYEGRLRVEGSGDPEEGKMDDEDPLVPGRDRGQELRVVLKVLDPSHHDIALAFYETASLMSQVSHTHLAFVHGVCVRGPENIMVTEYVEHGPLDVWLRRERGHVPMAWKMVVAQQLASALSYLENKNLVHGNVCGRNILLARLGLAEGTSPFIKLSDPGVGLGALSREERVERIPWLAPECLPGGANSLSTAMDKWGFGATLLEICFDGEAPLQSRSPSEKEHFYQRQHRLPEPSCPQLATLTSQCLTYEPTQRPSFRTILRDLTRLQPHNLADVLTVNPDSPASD
Protocol: Binding constants for compounds of the present invention against the JH2 domain were determined by the following protocol for a KINOMEscan® assay (DiscoveRx). A fusion protein of a partial length construct of human TYK2 (JH2domain-pseudokinase) (amino acids G556 to D888 based on reference sequence NP_003322.3) and the DNA binding domain of NFkB was expressed in transiently transfected HEK293 cells. From these HEK 293 cells, extracts were prepared in M-PER extraction buffer (Pierce) in the presence of Protease Inhibitor Cocktail Complete (Roche) and Phosphatase Inhibitor Cocktail Set II (Merck) per manufacturers' instructions. The TYK2(JH2domain-pseudokinase) fusion protein was labeled with a chimeric double-stranded DNA tag containing the NFkB binding site (5′-[…]-3′) fused to an amplicon for qPCR readout, which was added directly to the expression extract (the final concentration of DNA-tag in the binding reaction is 0.1 nM). […]
Extracts were used directly in binding assays without any enzyme purification steps at a ≥10,000-fold overall stock dilution (final DNA-tagged enzyme concentration <0.1 nM). […] Kds were determined using an 11-point 3-fold compound dilution series with three DMSO control points. […]
Kds were determined using an 11-point 3-fold compound dilution series with three DMSO control points. […] The Kds were determined using a compound top concentration of 30,000 nM. […]

Chain of Tyk2 kinase domain (JH1) (P29597 897-1176): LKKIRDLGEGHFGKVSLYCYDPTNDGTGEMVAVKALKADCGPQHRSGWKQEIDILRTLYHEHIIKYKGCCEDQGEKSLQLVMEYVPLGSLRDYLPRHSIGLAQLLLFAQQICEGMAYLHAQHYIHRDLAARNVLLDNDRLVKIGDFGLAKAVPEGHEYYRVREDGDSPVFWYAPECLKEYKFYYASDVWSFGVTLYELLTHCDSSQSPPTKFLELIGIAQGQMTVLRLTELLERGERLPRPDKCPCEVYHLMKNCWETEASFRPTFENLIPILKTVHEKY

With CNc1cc(Nc2cccn([C@H]3CC[C@@H](N4CCOCC4)CC3)c2=O)nc2c(C(=O)N[C@H]3C[C@H]3F)cnn12 [I-304] the “Tyk2 JH1% Inhibition @ 10 μM” value ([1]; 10 μM compound) was “A (had a percent inhibition at 10 μM lower than 50)” and the “JAK2 JH1% Inhibition @ 10 μM” value ([2]; 10 μM compound) was “A (had a percent inhibition at 10 μM lower than 50)”.
Work on CNc1cc(Nc2cccn([C@H]3CC[C@](C)(OC)CC3)c2=O)nc2c(C(=O)N[C@H]3C[C@H]3F)cnn12 [I-362] yielded an IC50 [3] of less than 100 nM and an IC50 [4] greater than 50 µM.
With CNc1cc(Nc2cccnc2OC)nc2c(C(=O)NC3CC4(COC4)C3)cnn12 [I-408] the inhibition at 10 µM ([1]; 10 μM compound) was less than 50% and the inhibition at 10 µM ([2]; 10 μM compound) was less than 50%.
CNc1cc(Nc2cccc([C@@H]3CCCOC3)n2)nc2c(C(=O)N[C@H]3CC[C@@H]3O)cnn12 [I-664] gave an inhibition at 10 µM ([1]; 10 μM compound) of less than 50% and an inhibition at 10 µM ([2]; 10 μM compound) of less than 50%.
For CNc1cc(Nc2cccn([C@H]3CC[C@H](OC)CC3)c2=O)nc2c(C(=O)N[C@H]3COC[C@H]3O)cnn12 [I-746], the “Tyk2 JH1% Inhibition @ 10 μM” value ([1]; 10 μM compound) was “A (had a percent inhibition at 10 μM lower than 50)” and the “JAK2 JH1% Inhibition @ 10 μM” value ([2]; 10 μM compound) was “A (had a percent inhibition at 10 μM lower than 50)”.
Compound CNc1cc(Nc2cc(Cl)cn([C@@H]3CCCOC3)c2=O)nc2c(C(=O)N[C@@H]3C[C@@H]3F)cnn12 [I-773] has an IC50 [3] of less than 100 nM and an IC50 [4] greater than 12.5 µM.
For CNc1cc(Nc2cccn([C@H]3CC[C@@H]3OC)c2=O)nc2c(C(=O)NC3CC3)cnn12 [I-936], the Kd [5] was 0.2 to 1 nM.
With CNc1cc(Nc2cccn3ccnc23)cc2c(C(=O)N[C@H]3CC[C@@H]3OC)cnn12 [I-1052] the inhibition at 10 µM ([1]; compound at 10 μM) was less than 50%, the IC50 [4] was greater than 50 µM and the inhibition at 10 µM ([2]; compound at 10 μM) was less than 50%. The Kd [5] was less than 0.2 nM.
In the case of CNc1cc(-c2cn([C@H]3CCN(CCF)C3)c3ncccc23)nc2c(C(=O)N[C@@H]3C[C@@H]3F)cnn12 [I-1362], the IC50 [3] is reported as less than 100 nM.
In the case of CNc1cc(-c2cn(C(C)C)c3ncc(F)cc23)nc2c(C(=O)N[C@H]3CC[C@H]3O)cnn12 [I-1387], the IC50 [3] is reported as less than 100 nM.
